Source: patent US11479802B2, “Assays for screening activity of modulators of members of the hydroxy steroid (17-beta) dehydrogenase (HSD17B) family” (Regeneron Pharmaceuticals, Inc., priority 2017, dated 2022)

What was measured:
[1] = target: T1, HSD17B4 (Homo sapiens, UniProt P51659); experiment: Steroid substrate panel against HSD17B family member B4; type: biochemical; settings: substrate at 50 μM; estradiol set as 100%
T1 construct: made in house
T1 sequence (P51659 1-736): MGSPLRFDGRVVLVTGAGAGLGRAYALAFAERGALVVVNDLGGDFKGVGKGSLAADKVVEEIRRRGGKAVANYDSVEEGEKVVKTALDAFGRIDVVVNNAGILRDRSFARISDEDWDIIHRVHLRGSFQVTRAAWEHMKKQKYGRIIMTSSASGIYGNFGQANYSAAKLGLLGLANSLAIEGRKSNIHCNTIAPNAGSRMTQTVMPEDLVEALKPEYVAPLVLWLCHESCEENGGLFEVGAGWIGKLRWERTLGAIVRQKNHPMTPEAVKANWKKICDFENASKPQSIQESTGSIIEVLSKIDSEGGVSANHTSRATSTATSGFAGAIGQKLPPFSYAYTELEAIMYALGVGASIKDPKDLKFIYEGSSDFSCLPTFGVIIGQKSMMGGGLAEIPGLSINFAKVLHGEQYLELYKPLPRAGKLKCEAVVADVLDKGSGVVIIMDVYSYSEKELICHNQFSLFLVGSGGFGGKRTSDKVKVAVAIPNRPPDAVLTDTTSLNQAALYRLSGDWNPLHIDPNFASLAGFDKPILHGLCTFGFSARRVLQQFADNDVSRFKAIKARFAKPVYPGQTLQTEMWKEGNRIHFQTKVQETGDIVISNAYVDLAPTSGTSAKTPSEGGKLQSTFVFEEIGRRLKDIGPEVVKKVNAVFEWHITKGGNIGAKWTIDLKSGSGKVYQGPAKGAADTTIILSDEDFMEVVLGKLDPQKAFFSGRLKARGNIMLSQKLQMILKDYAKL

[2] = target: T2, HEK293 cells overexpressing HSD17B13 isoform A (Homo sapiens, UniProt Q7Z5P4); experiment: HEK293 cell-based substrate consumption assay (LC-MS); settings: 1 μM substrate, 2 hours or 48 hours
T2 construct: expressed in transfected cells; host or cells: HEK293
T2 sequence (Q7Z5P4 20-300): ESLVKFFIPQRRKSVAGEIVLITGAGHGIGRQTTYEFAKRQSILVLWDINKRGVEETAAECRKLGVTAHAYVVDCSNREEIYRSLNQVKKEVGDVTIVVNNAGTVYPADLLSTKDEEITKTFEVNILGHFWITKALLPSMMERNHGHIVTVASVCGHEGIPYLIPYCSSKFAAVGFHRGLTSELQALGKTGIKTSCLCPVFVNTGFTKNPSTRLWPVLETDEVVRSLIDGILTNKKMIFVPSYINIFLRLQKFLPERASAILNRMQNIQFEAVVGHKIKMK

[3] = target: T3, HSD17B5 (Homo sapiens, UniProt P42330); experiment: Steroid substrate panel against HSD17B family member B5; type: biochemical; settings: substrate at 50 μM; estradiol set as 100%
T3 construct: made in house
T3 sequence (P42330 1-323): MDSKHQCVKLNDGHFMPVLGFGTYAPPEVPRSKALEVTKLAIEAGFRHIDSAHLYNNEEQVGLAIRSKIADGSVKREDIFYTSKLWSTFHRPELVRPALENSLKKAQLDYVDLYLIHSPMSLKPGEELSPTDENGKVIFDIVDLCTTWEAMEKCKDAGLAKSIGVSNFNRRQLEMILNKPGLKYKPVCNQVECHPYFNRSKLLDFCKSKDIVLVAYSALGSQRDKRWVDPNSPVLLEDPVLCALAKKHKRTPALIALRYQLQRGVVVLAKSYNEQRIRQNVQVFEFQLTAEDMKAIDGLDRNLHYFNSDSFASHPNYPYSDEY

[4] = target: T4, HSD17B10 (Homo sapiens, UniProt Q99714); experiment: Steroid substrate panel against HSD17B family member B10; type: biochemical; settings: substrate at 50 μM; estradiol set as 100%
T4 construct: made in house
T4 sequence (Q99714 1-261): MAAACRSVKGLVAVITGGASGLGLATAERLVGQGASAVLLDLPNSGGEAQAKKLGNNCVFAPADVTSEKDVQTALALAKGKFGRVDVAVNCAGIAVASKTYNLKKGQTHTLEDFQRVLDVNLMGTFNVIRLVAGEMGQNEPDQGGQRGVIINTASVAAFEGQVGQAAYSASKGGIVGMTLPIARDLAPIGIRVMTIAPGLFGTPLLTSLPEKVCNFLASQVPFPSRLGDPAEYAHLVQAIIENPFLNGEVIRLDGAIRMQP

[5] = target: T5, human HSD17B13 (Homo sapiens, UniProt Q7Z5P4); experiment: Substrate screening of steroid and bioactive lipid libraries against purified recombinant HSD17B13 (NADH-linked luciferase assay); type: biochemical; settings: for HSD17B13 Enzymatic Activity Relative Light Units: 500 μM NAD+, 100 ng enzyme, 3 hours at 23° C.; for HSD17B13 Enzymatic Activity Percent Estradiol Control: normalized to 50 μM estradiol after subtraction of 5% DMSO
T5 sequence (Q7Z5P4 20-300): T2 sequence (Q7Z5P4 20-300)
Procedure, shortened: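 Substrates (bioactive lipids 5 μM, steroids 50 μM; 5% DMSO) tested with 500 μM NAD+ and 100 ng recombinant human HSD17B13 in 0.2 M Tris-HCl pH 7.5, 3 h, 23° C. Luminescent NADH detection followed 1 h later; RLU normalized to estradiol (50 μM, 100%) and DMSO (0%) controls.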

[6] = target: T6, HSD17B2 (Homo sapiens, UniProt P37059); experiment: Steroid substrate panel against HSD17B family member B2; type: biochemical; settings: substrate at 50 μM; estradiol set as 100%
T6 construct: made in house
T6 sequence (P37059 1-387): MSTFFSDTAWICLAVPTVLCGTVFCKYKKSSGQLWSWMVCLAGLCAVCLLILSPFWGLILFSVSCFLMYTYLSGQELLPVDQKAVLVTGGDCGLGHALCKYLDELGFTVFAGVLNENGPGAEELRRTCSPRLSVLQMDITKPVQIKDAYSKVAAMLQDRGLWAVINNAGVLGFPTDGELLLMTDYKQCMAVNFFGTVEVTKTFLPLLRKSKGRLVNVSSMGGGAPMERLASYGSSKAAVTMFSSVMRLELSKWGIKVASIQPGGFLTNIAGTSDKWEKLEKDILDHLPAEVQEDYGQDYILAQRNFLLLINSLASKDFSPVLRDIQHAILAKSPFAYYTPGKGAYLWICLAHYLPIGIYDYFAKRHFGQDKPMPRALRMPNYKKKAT

[7] = target: T7, HSD17B1 (Homo sapiens, UniProt P14061); experiment: Steroid substrate panel against HSD17B family member B1; type: biochemical; settings: substrate at 50 μM; estradiol set as 100%
T7 construct: made in house
T7 sequence (P14061 1-328): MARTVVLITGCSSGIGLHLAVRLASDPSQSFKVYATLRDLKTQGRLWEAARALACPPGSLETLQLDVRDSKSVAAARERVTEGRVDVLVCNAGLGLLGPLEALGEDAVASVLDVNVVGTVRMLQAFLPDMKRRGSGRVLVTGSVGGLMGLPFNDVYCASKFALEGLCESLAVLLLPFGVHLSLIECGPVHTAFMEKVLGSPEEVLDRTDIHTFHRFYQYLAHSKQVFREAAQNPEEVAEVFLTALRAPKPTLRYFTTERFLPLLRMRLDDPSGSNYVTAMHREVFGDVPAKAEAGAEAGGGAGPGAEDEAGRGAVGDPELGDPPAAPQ

[8] = target: T8, HSD17B11 (Homo sapiens, UniProt Q8NBQ5); experiment: Steroid substrate panel against HSD17B family member B11; type: biochemical; settings: substrate at 50 μM; estradiol set as 100%
T8 construct: made in house
T8 sequence (Q8NBQ5 20-300): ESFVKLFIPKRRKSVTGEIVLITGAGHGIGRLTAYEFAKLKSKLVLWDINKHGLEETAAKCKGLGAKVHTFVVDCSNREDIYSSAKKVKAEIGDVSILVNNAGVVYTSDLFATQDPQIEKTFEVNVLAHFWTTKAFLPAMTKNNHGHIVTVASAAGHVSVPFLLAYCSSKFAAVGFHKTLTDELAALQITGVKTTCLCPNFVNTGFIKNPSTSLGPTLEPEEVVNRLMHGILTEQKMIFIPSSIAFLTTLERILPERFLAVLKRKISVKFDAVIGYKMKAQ

[9] = target: T9, recombinant HSD17B13 (E20-K300) (Homo sapiens, UniProt Q7Z5P4); experiment: Biochemical NADH-linked screen of bioactive lipids as substrates (Example 2); settings: 5 μM substrate, 100 μM NAD+, four hours at room temperature
T9 construct: recombinant HSD17B13 (E20-K300)
T9 sequence (Q7Z5P4 20-300): T2 sequence (Q7Z5P4 20-300)
Method: The biochemical assay described in Example 1 was repeated using bioactive lipids as substrates. In brief, 5 μM of each substrate was incubated in 40 μL reactions containing 1 μg of recombinant HSD17B13 (E20-K300) or beta-2 microglobulin (as a negative control) and 100 μM NAD^+ in 0.2M Tris-HCl, pH 7.5. After four hours of incubation at room temperature, 10 μL of each reaction was mixed with 10 μL luciferase and read, after 40 minutes, on an Envision Plate Reader (Perkin Elmer).

[10] = target: T5, human HSD17B13; experiment: Biochemical NADH-linked screen of compound libraries as substrates for HSD17B13 (Example 1); settings: 50 μM substrate, 0.5 mM NAD+, 24 hr at 25 degrees C.
Method: A biochemical assay was employed to screen the compounds from the library. The assay employed the following reaction conditions: 0.1 M Potassium phosphate buffer pH 7.5, 0.5 mM NAD^+, 50 μM substrate in DMSO 2% reaction volume or DMSO alone (no substrate) as a control, and 1 μl of purified enzyme or green fluorescent protein (GFP) as a control, with a final reaction volume of 100 microliters. Test samples were subject to a 24 hr incubation at 25 degrees C. After incubation, 20 μL reaction above+20 μL luciferase were incubated at room temperature for 1 h and read on an Envision Plate Reader (Perkin Elmer).

[11] = target: T7, HSD17B1; experiment: Cell-based assay of estrone to estradiol conversion by HSD17B1 (LC-MS); settings: over 48 hour period
Description: The capacity of HSD17B1 to convert estrone to estradiol, and the capacity of equilin to inhibit HSD17B1 was confirmed in a cell-based assay. Liquid chromatography and mass spectrometry (LC-MS) was used to measure estrone and estradiol concentration over time.

Compound: C[C@]12CCC(O)C[C@@H]1CC[C@@H]1[C@@H]2CC[C@]2(C)[C@@H](O)CC[C@@H]12 (stereo partly drawn) [Androstanediol]
- Percent of Control (POC), B4 [1]: 63.0%
- conversion of substrate catalyzed by HSD17B13 in cells [2]: did not substantially catalyze the conversion
- Percent of Control (POC), B5 [3]: 216%
- Percent of Control (POC), B10 [4]: 1.9%
- HSD17B13 Enzymatic Activity Relative Light Units ([5]; Steroid Library, 50 μM steroid): 488440 RLU
- HSD17B13 Enzymatic Activity Percent Estradiol Control ([5]; Steroid Library, 50 μM steroid): 5.73%
- Percent of Control (POC), B2 [6]: 46.9%
- Percent of Control (POC), B1 [7]: 0.3%
- Percent of Control (POC), B11 [8]: 0.0%

Compound: CCCCC/C=C\C[C@@H](O)/C=C/C=C/C=C\[C@@H](O)CCCC(=O)O [Leukotriene B4]
- substrate for HSD17B13 [9]: is a substrate
- identified as enzymatic substrate of HSD17B13 ([5]; 265 unique putative substrates tested): enzymatic substrates
- HSD17B13 Enzymatic Activity Relative Light Units ([5]; Bioactive Lipid Library, 5 μM bioactive lipid (Estradiol Control 50 μM)): 1743000 RLU
- HSD17B13 Enzymatic Activity Percent Estradiol Control ([5]; Bioactive Lipid Library, 5 μM bioactive lipid): 115.40%

Compound: C[C@]12CC[C@H]3[C@@H](CC[C@@]45O[C@@H]4C(O)=C(C#N)C[C@]35C)[C@@H]1CC[C@@H]2O [Trilostane]
- HSD17B13 Enzymatic Activity Relative Light Units ([5]; Steroid Library, 50 μM steroid): 1896560 RLU
- HSD17B13 Enzymatic Activity Percent Estradiol Control ([5]; Steroid Library, 50 μM steroid): 30.32%
- suitability as substrate for HSD17B13 [10]: suitable substrates

Compound: CCCCCC[C@@H](O)C/C=C\CCCCCCCC(=O)O [ricinoleic acid]
- substrate for HSD17B13 [9]: identified as representative substrates

Compound: C[C@]12CC[C@H]3C(=CCc4cc(O)ccc43)[C@@H]1CCC2=O [Equilin]
- HSD17B13 Enzymatic Activity Relative Light Units ([5]; Steroid Library, 50 μM steroid): 186840 RLU
- HSD17B13 Enzymatic Activity Percent Estradiol Control ([5]; Steroid Library, 50 μM steroid): 0.46%
- inhibition of conversion of estrone to estradiol by HSD17B1 [11]: can be inhibited by equilin

Compound: C[C@]12CC[C@H](O)C[C@@H]1CC[C@@H]1[C@@H]2CC[C@]2(C)[C@@H](O)CC[C@@H]12 [5alpha-androstane-3beta,17beta-diol]
- Percent of Control (POC), B4 [1]: 38.9%
- Percent of Control (POC), B5 [3]: 0%
- Percent of Control (POC), B10 [4]: 1.2%
- HSD17B13 Enzymatic Activity Relative Light Units ([5]; Steroid Library, 50 μM steroid): 398600 RLU
- HSD17B13 Enzymatic Activity Percent Estradiol Control ([5]; Steroid Library, 50 μM steroid): 4.16%
- Percent of Control (POC), B2 [6]: 42.5%
- Percent of Control (POC), B1 [7]: 0.3%
- Percent of Control (POC), B11 [8]: 0.0%

Compound: C[C@H](O)[C@@]1(O)CC[C@H]2[C@@H]3CC[C@@H]4C[C@H](O)CC[C@]4(C)[C@H]3CC[C@@]21C [Pregnanetriol]
- Percent of Control (POC), B4 [1]: 0.4%
- Percent of Control (POC), B5 [3]: 48%
- Percent of Control (POC), B10 [4]: 26.4%
- HSD17B13 Enzymatic Activity Relative Light Units ([5]; Steroid Library, 50 μM steroid): 163920 RLU
- HSD17B13 Enzymatic Activity Percent Estradiol Control ([5]; Steroid Library, 50 μM steroid): 0.06%
- Percent of Control (POC), B2 [6]: 6.1%
- Percent of Control (POC), B1 [7]: −0.1%
- Percent of Control (POC), B11 [8]: 26.1%
